Holding throughout (format): cell-based, rat
Assay [1] deals with hair cell-damaged cochlea/modiolus explants. Nature of the assay: proliferating supporting cells (BrdU+/Sox2+) in hair cell-damaged cochlea/modiolus explants, confocal microscopy. The note with it: three days, after 1 mM tobramycin for three days. The method, then:
Postnatal day 5 rat cochlea cochlea/modiolus explants were collected and cultured with 1 mM tobramycin for three days to kill hair cells. Cultures were then treated for three days with DMSO, 3 uM bromo benzyl ellipticinium, 60 uM CHIR99021, or both. Tissues were fixed with 4% paraformaldehyde, and cochlea were removed from surrounding tissue and immunostained with anti-SOX2 and anti-BrdU antibodies. Whole mount confocal microscopy was used to identify proliferating supporting cells (Brdu+/Sox2+) counted in 300 um of the basal-most cochlea. Cochlea were analyzed in triplicates per treatment group.

The subject of assay [2] is p27. Nature of the assay: p27 protein levels in hair cell-damaged (tobramycin) cochlear explants by western blot. The note with it: 3 uM, 24 hours, after 1 mM tobramycin for two days, vs vehicle (DMSO) (FIG. 4). As to the method:
(§1) Postnatal day 5 rat cochlea were collected and cultured with 1 mM tobramycin for two days to kill hair cells. Cultures were then treated with 3 uM bromo benzyl ellipticinium dissolved in DMSO or DMSO alone (negative control) for 24 hours.
(§2) Cochlear explant extracts were analyzed by western blotting. Detergent-solubilized extracts were electrophoresed on a polyacrylamide gel, and the separated denatured proteins transferred to a PVDF membrane. Antibodies to p27, p57, phosphorylated Histone H3, phosphorylated p130 and the house-keeping gene, β-actin were used with infrared dye-conjugated secondary antibodies and quantified by fluorescence. Levels of p27, p57, phosphorylated Histone H3, and phosphorylated p130 were normalized to the beta-actin signal before comparing treated and control samples.

The test system of assay [3] is hair cell-damaged cochlear explants. Nature of the assay: cell proliferation (phosphorylated Histone H3) in hair cell-damaged cochlear explants by western blot. To be noted: 3 uM, 24 hours, after 1 mM tobramycin for two days, vs vehicle (DMSO) (FIG. 4). As to the method:
as §1, §2
(Immunoblotting shows a protein as a band on a membrane.)

Regarding `Cc1c[nH]c(-c2cnc(NCCNc3ccc(C#N)cn3)nc2-c2ccc(Cl)cc2Cl)n1` [CHIR99021, reference compound], the “BrdU+/Sox2+ ells/300 μm of Basal Cochlea (Mean ± SD, n = 3)” value in assay [1] (60 μM) is 0 ± 0 ells/300 μm.
On to `Cc1c2cc[n+](Cc3ccccc3)cc2c(C)c2c1[nH]c1ccccc12` [bromo benzyl ellipticinium, Bromo Benzyl Ellipticinium], for which the p27 protein levels entry in assay [2] is on record as “reduced”. In assay [3], the cell proliferation entry is listed as “increased”. Moreover, the “BrdU+/Sox2+ ells/300 μm of Basal Cochlea (Mean ± SD, n = 3)” value in assay [1] (3 μM) was 0 ± 0 ells/300 μm.
